Counter-ions that a name gives are not always drawn.

For the test, the target named is T1, Farnesyltransferase (FTase) (Bos taurus, UniProt P29702+P49355).
T1 construct: precipitation from a beef brain homogenate; from tissue; host or cells: bovine brain
T1 sequence (P49355 whole entry, one chain of several): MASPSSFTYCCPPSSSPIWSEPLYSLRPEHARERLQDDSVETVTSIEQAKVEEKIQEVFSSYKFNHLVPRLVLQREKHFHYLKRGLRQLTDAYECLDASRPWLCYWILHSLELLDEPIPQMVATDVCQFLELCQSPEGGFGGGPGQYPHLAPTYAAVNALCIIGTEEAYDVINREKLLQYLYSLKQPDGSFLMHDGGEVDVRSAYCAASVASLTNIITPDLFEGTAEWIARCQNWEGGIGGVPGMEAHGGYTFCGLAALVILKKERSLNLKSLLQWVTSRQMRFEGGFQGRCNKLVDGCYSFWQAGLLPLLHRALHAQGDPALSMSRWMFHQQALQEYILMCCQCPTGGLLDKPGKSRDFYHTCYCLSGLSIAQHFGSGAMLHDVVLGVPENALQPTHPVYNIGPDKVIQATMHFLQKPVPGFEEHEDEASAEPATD
Briefly: Farnesyltransferase inhibition (scintillation proximity assay, [3H]-FPP / biotin-K-ras peptide). Type of test: biochemical, bovine. Particulars: compound at 10^−6 M; bovine FTase, 37° C., 30 minutes. Put shortly: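 Read-out: [3H]-FPP prenylation of a biotinylated K-ras peptide by SPA, measured 1 h after quenching. Enzyme: FTase purified from bovine brain (ammonium sulfate cut, DEAE Sepharose), free of GGTase I and II. Test compounds in ethanol, diluted 10-fold into the reaction.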
One may read the inhibition as the change of the read-out against control, counted positive when it falls. For `Cc1ccccc1-c1cc(C(OCc2ccc(C(N)=O)cc2)c2cncn2C)ccc1C#N` (stereo not shown) [Example 188, 4-(((6-cyano-2′-methyl(1,1′-biphenyl)-3-yl)(1-methyl-1H-imidazol-5-yl)methoxy)methyl)benzamide], the inhibition at 1 µM turned out to be 92%.

The molecule `CNC(=O)c1ccc(COC(c2ccc(C#N)c(-c3ccccc3C)c2)c2cncn2C)cc1` (stereo not shown) [Example 189, 4-(((6-cyano-2′-methyl(1,1′-biphenyl)-3-yl)(1-methyl-1H-imidazol-5-yl)methoxy)methyl)-N-methylbenzamide] came in with an inhibition at 1 µM of 95%.

For `Cc1ccccc1-c1cc(C(OCc2ccc(C(=O)N(C)C)cc2)c2cncn2C)ccc1C#N` (stereo not shown) [Example 190, 4-(((6-cyano-2′-methyl(1,1′-biphenyl)-3-yl)(1-methyl-1H-imidazol-5-yl)methoxy)methyl)-N,N-dimethylbenzamide], the inhibition at 1 µM is 90%.

In general, % Inhibition refers to the change of the read-out against control, counted positive when it falls. Lower therefore signals a weak effect. In the case of `Cn1cncc1CN(Cc1ccc(C#N)cc1)C(=O)c1ccc(C#N)c(-c2cccc3ccccc23)c1` [Example 191, 4-cyano-N-(4-cyanobenzyl)-N-((1-methy-1H-imidazol-5-yl)methyl)-3-(1-naphthyl)benzamide], the “% Inhibition at 10^−6M” value is recorded as 99%.

`Cn1cncc1CN(Cc1ccc(C(=O)O)cc1)Cc1ccc(C#N)c(-c2cccc3ccccc23)c1` [Example 193, 4-(((4-cyano-3-(1-naphthyl)benzyl)((1-methyl-1H-imidazol-5-yl)methyl)amino)methyl)benzoic acid dihydrochloride] returned an inhibition at 1 µM of 91%.

Regarding `CC(=O)Nc1ccc(CN(Cc2ccc(C#N)c(-c3cccc4ccccc34)c2)Cc2cncn2C)cc1` [Example 194, N-(4-(((4-cyano-3-(1-naphthyl)benzyl)((1-methyl-1H-imidazol-5-yl)methyl)amino)methyl)phenyl)acetamide dihydrochloride], the inhibition at 1 µM was 97%.

For the molecule `Cn1cncc1CN(Cc1ccc(S(C)(=O)=O)cc1)Cc1ccc(C#N)c(-c2cccc3ccccc23)c1` [Example 195, 4-((((1-methyl-1H-imidazol-5-yl)methyl)(4-(methylsulfonyl)benzyl)amino)methyl)-2-(1-naphthyl)benzonitrile dihydrochloride], the inhibition at 1 µM stood at 98%.

Molecule `Cn1cncc1CN(Cc1ccc(C#N)c(-c2cccc3ccccc23)c1)C(=O)c1ccc(C#N)cc1` [Example 196, 4-cyano-N-(4-cyano-3-(1-naphthyl)benzyl)-N-((1-methyl-1H-imidazol-5-yl)methyl)benzamide] displayed an inhibition at 1 µM of 90%.

With `Cn1cncc1CN(Cc1ccc(C#N)c(-c2cccc3ccccc23)c1)C(=O)c1ccc(Cl)c(Cl)c1` [Example 197, 3,4-dichloro-N-(4-cyano-3-(1-naphthyl)benzyl)-N-((1-methyl-1H-imidazol-5-yl)methyl)benzamide], 1 µM produced 93% inhibition.

In turn, `Cn1cncc1CN(Cc1ccc(C#N)c(-c2cccc3ccccc23)c1)C(=O)c1ccc(Cl)c(F)c1` [Example 198, 4-chloro-N-(4-cyano-3-(1-naphthyl)benzyl)-3-fluoro-N-((1-methyl-1H-imidazol-5-yl)methyl)benzamide] displayed an inhibition at 1 µM of 94%.

`Cn1cncc1CN(Cc1ccc(C#N)c(-c2cccc3ccccc23)c1)C(=O)c1cnc(Cl)c(Cl)c1` [Example 199, 5,6-dichloro-N-(4-cyano-3-(1-naphthyl)benzyl)-N-((1-methyl-1H-imidazol-5-yl)methyl)nicotinamide] had an inhibition at 1 µM of 89%.

`Cn1cncc1C(OCc1ccc(C#N)cc1)c1ccc(C#N)c(-c2ccccc2C=O)c1` (stereo not shown) [Example 200, 5-(((4-cyanobenzyl)oxy)(1-methyl-1H-imidazol-5-yl)methyl)-2′-formyl(1,1′-biphenyl)-2-carbonitrile hydrochloride] gave an inhibition at 1 µM of 99%.

Molecule `Cn1cncc1C(OCc1ccc(C#N)cc1)c1ccc(C#N)c(-c2ccccc2C(F)(F)F)c1` (stereo not shown) [Example 201, 5-(((4-cyanobenzyl)oxy)(1-methyl-1H-imidazol-5-yl)methyl)-2′-(trifluoromethyl)(1,1′-biphenyl)-2-carbonitrile hydrochloride] gave an inhibition at 1 µM of 99%.

Consider `Cn1cncc1C(OCc1ccc(C#N)cc1)c1ccc(C#N)c(-c2ccc(Cl)cc2Cl)c1` (stereo not shown) [Example 202, 2′,4′-dichloro-5-(((4-cyanobenzyl)oxy)(1-methyl-1H-imidazol-5-yl)methyl)(1,1′-biphenyl)-2-carbonitrile hydrochloride], for which the inhibition at 1 µM turned out to be 92%.

Take `Cn1cncc1C(OCc1ccc(C#N)cc1)c1ccc(C#N)c(-c2cc3ccccc3s2)c1` (stereo not shown) [Example 203, 2-(1-benzothien-2-yl)-4-(((4-cyanobenzyl)oxy)(1-methyl-1H-imidazol-5-yl)methyl)benzonitrile hydrochloride]: the inhibition at 1 µM amounted to 86%.

Molecule `Cn1cncc1C(OCc1ccc(C#N)cc1)c1ccc(C#N)c(-c2ccccc2CO)c1` (stereo not shown) [Example 204, 5-(((4-cyanobenzyl)oxy)(1-methyl-1H-imidazol-5-yl)methyl)-2′-(hydroxymethyl)(1,1′-biphenyl)-2-carbonitrile] gave an inhibition at 1 µM of 96%.

Consider `Cn1cncc1C(OCc1ccc(C#N)cc1)c1ccc(C#N)c(-c2ccccc2C(=O)O)c1` (stereo not shown) [Example 205, 2′-cyano-5′-(((4-cyanobenzyl)oxy)(1-methyl-1H-imidazol-5-yl)methyl)(1,1′-biphenyl)-2-carboxylic acid], for which the inhibition at 1 µM came to 90%.

As for `Cn1cncc1CN(Cc1ccc(C#N)cc1)C(=O)c1ccc(C#N)c(-c2cccc3cccnc23)c1` [Example 206, 4-cyano-N-(4-cyanobenzyl)-N-((1-methyl-1H-imidazol-5-yl)methyl)-3-(8-quinolinyl)benzamide], the inhibition at 1 µM stood at 88%.

In turn, `Cn1cncc1CN(Cc1ccc(C#N)c(-c2cccc3ccccc23)c1)Cc1cc(OC(F)(F)F)ccc1O` [Example 207, 4-(((2-hydroxy-5-(trifluoromethoxy)benzyl)((1-methyl-1H-imidazol-5-yl)methyl)-amino)methyl)-2-(1-naphthyl)benzonitrile] had an inhibition at 1 µM of 91%.

Regarding `COC(=O)c1ccc(CN(Cc2ccc(C#N)c(-c3cccc4ccccc34)c2)Cc2cncn2C)nc1` [Example 208, methyl 6-(((4-cyano-3-(1-naphthyl)benzyl)((1-methyl-1H-imidazol-5-yl)methyl)-amino)-methyl)nicotinate], 1 µM produced 95% inhibition.

`CCOC(=O)N1CCC(N(Cc2ccc(C#N)c(-c3cccc4ccccc34)c2)Cc2cncn2C)CC1` [Example 209, ethyl 4-((4-cyano-3-(1-naphthyl)benzyl)((1-methyl-1H-imidazol-5-yl)methyl)-amino)-1-piperidinecarboxylate] returned an inhibition at 1 µM of 93%.

The molecule `Cc1ccccc1-c1cc(C(Cn2ccnc2)OCc2ccccc2)ccc1C#N` (stereo not shown) [Example 210, 5-(1-(benzyloxy)-2-(1H-imidazol-1-yl)ethyl)-2′-methyl(1,1′-biphenyl)-2-carbonitrile hydrochloride] had an inhibition at 1 µM of 48%.

In turn, `Cc1ccccc1-c1cc(C(O)c2cccnc2)ccc1C#N` (stereo not shown) [Example 211, 5-(hydroxy(3-pyridinyl)methyl)-2′-methyl(1,1′-biphenyl)-2-carbonitrile] gave an inhibition at 1 µM of 30%.

`Cc1ccccc1-c1cc(CNc2cccnc2)ccc1C#N` [Example 212, 2′-methyl-5-((3-pyridinylamino)methyl)(1,1′-biphenyl)-2-carbonitrile] displayed an inhibition at 1 µM of 10%.

Molecule `Cc1ccccc1-c1cc(C(OCc2ccccc2)c2cncs2)ccc1C#N` (stereo not shown) [Example 213, 5-((benzyloxy)(1,3-thiazol-5-yl)methyl)-2′-methyl(1,1′-biphenyl)-2-carbonitrile hydrochloride] returned an inhibition at 1 µM of 41%.

On to `Cc1ccccc1-c1cc(C(O)c2cncs2)ccc1C#N` (stereo not shown) [Example 214, 5-(hydroxy(1,3-thiazol-5-yl)methyl)-2′-methyl(1,1′-biphenyl)-2-carbonitrile], for which the inhibition at 1 µM was determined as 20%.

`Cc1ccccc1-c1cc(CN(Cc2ccccc2)Cc2cccnc2)ccc1C#N` [Example 215, 5-((benzyl(3-pyridinylmethyl)amino)methyl)-2′-methyl(1,1′-biphenyl)-2-carbonitrile hydrochloride] displayed an inhibition at 1 µM of 29%.

The molecule `Cc1ccccc1-c1cc(NCc2cccnc2)ccc1C#N` [Example 216, 2′-methyl-5-((3-pyridinylmethyl)amino)(1,1′-biphenyl)-2-carbonitrile] had an inhibition at 1 µM of 27%.

As for `Cc1ccccc1-c1cc(N(Cc2ccccc2)Cc2cccnc2)ccc1C#N` [Example 217, 5-(benzyl(3-pyridinylmethyl)amino)-2′-methyl(1,1′-biphenyl)-2-carbonitrile], the inhibition at 1 µM was found to be 71%.

In turn, `Cc1ccccc1-c1cc(NCc2cncn2C)ccc1C#N` [Example 225, 2′-methyl-5-(((1-methyl-1H-imidazol-5-yl)methyl)amino)(1,1′-biphenyl)-2-carbonitrile] displayed an inhibition at 1 µM of 50%.

Molecule `Cc1ccccc1-c1cc(N(Cc2ccccc2)Cc2cncn2C)ccc1C#N` [Example 226, 5-(benzyl((1-methyl-1H-imidazol-5-yl)methyl)amino)-2′-methyl(1,1-biphenyl)-2-carbonitrile] returned an inhibition at 1 µM of 100%.

The molecule `CN(Cc1cncn1C)c1ccc(C#N)c(-c2cccc3ccccc23)c1` [Example 227, 4-(methyl((1-methyl-1H-imidazol-5-yl)methyl)amino)-2-(1-naphthyl)benzonitrile] yielded an inhibition at 1 µM of 100%.

`C=CCN(Cc1cncn1C)c1ccc(C#N)c(-c2cccc3ccccc23)c1` [Example 228, 4-(allyl( (1-methyl-1H-imidazol-5-yl)methyl)amino)-2-(1-naphthyl)benzonitrile] displayed an inhibition at 1 µM of 100%.

Molecule `Cc1ccccc1-c1cc(N(Cc2ccc(C#N)cc2)Cc2cncn2C)ccc1C#N` [Example 229, 5-((4-cyanobenzyl)((1-methyl-1H-imidazol-5-yl)methyl)amino)-2′-methyl(1,1′-biphenyl)-2-carbonitrile] had an inhibition at 1 µM of 100%.

The record behind these values is patent publication US20020019527A1 (priority 2000, published 2002).
